# Laboratory results taken from patent publication EP4603105A1, “PHARMACEUTICAL COMPOSITION CONTAINING CYCLIC COMPOUND HAVING SELECTIVE KRAS INHIBITORY EFFECT AGAINST HRAS AND NRAS” (CHUGAI SEIYAKU KABUSHIKI KAISHA, priority 2022, dated 2024).
# What was measured:
# [1] = molecular target: GDP-bound KRAS wild-type protein (Homo sapiens, UniProt P01116); assay: Binding to KRAS by surface plasmon resonance (SPR), dissociation constant KD
# Procedure, shortened: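 Running buffer contained 10 µM GDP and 10 mM MgCl2 to keep RAS in the GDP state, with 4% DMSO at pH 7.4. Compounds were flowed at 100 µL/min in 75 s steps of rising concentration over captured biotin-Avi RAS at 30°C. Sensorgrams were fitted 1:1 for KD.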
# [2] = molecular target: GDP-bound NRAS wild-type protein (Homo sapiens, UniProt P01111); assay: Binding to NRAS by surface plasmon resonance (SPR), KD and KD ratio to KRAS; settings: ratio of KD for GDP-bound NRAS wild-type protein to KD for KRAS
# Procedure, shortened: (§1)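 Recombinant RAS proteins bearing a biotinylated Avi tag and loaded with GDP served as the captured ligand, recaptured fresh every cycle. Binding responses were referenced to an uncoated surface and a buffer-only blank cycle. Dissociation constants were obtained by 1:1 model fitting at 30°C.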
# HRAS wild-type protein = HRAS wild-type protein (Homo sapiens, UniProt P01112); assay: Binding to HRAS by surface plasmon resonance (SPR), KD and KD ratio to KRAS; settings: ratio of KD for HRAS wild-type protein to KD for KRAS
# Procedure, shortened: as §1
# [3] = test system: human lung cancer strain NCI-H441; format: cell-based
# Procedure, shortened: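 Signal came from […] measured per well once the reagent was added. Beforehand, cells were cultured at 37°C and 5% carbon dioxide on a compound series serially diluted in dimethyl sulfoxide.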
# [4] = test system: human gastric cancer strain SNU-1; format: cell-based
# Method: (§2) A test compound was dispensed into a U-bottom 384-well plate as 40 nL serially diluted dimethyl sulfoxide solutions using a liquid handler Echo (LABCYTE). As for human gastric cancer strain SNU-1 (ATCC), a cell suspension was prepared so as to have 250 cells/40 µL in an RPMI-1640 medium (Sigma) supplemented with 10% fetal bovine serum (Sigma), a 2.5 g/L D-(+)-glucose solution, 10 mmol/L HEPES, and 1 mmol/L sodium pyruvate. This cell suspension was dispensed in an amount of 40 µL per well into a plate containing the test compound, and cultured at 37°C in a 5% carbon dioxide gas incubator. Seven days later, 20 µL of CellTiter-Glo (registered trademark) (Promega) was added to each well and luminescence was measured.
# [5] = test system: human pancreatic cancer strain KP4; format: cell-based
# Method: as §2, with “pancreatic” for “gastric”, “KP4 (Institute of Physical and Chemical Research),” for “SNU-1 (ATCC),”, “500” for “250”, “a DMEM/Ham's F-12” for “an RPMI-1640”, “(Nacalai Tesque)” for “(Sigma)”, “(Sigma).” for “(Sigma), a 2.5 g/L D-(+)-glucose solution, 10 mmol/L HEPES, and 1 mmol/L sodium pyruvate.”
# [6] = test system: human colorectal cancer strain GP2d; format: cell-based
# Method: as §2, with “colorectal” for “gastric”, “GP2d (ECACC),” for “SNU-1 (ATCC),”, “500” for “250”, “a Dulbecco's modified Eagle” for “an RPMI-1640”, “medium” for “medium (Sigma)”, “(Sigma).” for “(Sigma), a 2.5 g/L D-(+)-glucose solution, 10 mmol/L HEPES, and 1 mmol/L sodium pyruvate.”
# [7] = test system: human gastric cancer strain GSU; format: cell-based
# Method: as §2, with “GSU (Institute of Physical and Chemical Research),” for “SNU-1 (ATCC),”, “200” for “250”, “(Sigma).” for “(Sigma), a 2.5 g/L D-(+)-glucose solution, 10 mmol/L HEPES, and 1 mmol/L sodium pyruvate.”
# [8] = test system: human ovarian cancer strain OV7; format: cell-based
# Method: A test compound was dispensed into a U-bottom 384-well plate as 40 nL serially diluted dimethyl sulfoxide solutions using a liquid handler Echo (LABCYTE). As for human ovarian cancer strain OV7 (ECACC), a cell suspension was prepared so as to have 250 cells/40 µL in a DMEM/Ham's F-12 medium (Nacalai Tesque) supplemented with 5% fetal bovine serum (Sigma), 0.5 µg/mL hydrocortisone, and 10 µg/mL insulin. This cell suspension was dispensed in an amount of 40 µL per well into a plate containing the test compound, and cultured at 37°C in a 5% carbon dioxide gas incubator. Seven days later, 20 µL of CellTiter-Glo (registered trademark) (Promega) was added to each well and luminescence was measured.
# [9] = test system: human bladder cancer strain UM-UC-3; format: cell-based
# Method: as §2, with “human bladder” for “human gastric”, “strain UM-UC-3” for “strain SNU-1”, “an MEM” for “an RPMI-1640”, “medium (Nacalai Tesque)” for “medium (Sigma)”, “(Sigma), an MEM non-essential amino acids solution (100X),” for “(Sigma), a 2.5 g/L D-(+)-glucose solution, 10 mmol/L HEPES,”, “measured. […]” for “measured.”
# Chain of HRAS wild-type protein (P01112 whole entry): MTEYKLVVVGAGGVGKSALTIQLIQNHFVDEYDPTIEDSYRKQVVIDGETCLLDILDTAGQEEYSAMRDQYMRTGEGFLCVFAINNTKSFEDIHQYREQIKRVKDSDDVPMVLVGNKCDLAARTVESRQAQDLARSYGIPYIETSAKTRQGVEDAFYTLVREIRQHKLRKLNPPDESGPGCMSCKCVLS
# Chain of GDP-bound KRAS wild-type protein (P01116 1-188 isoform P01116-2): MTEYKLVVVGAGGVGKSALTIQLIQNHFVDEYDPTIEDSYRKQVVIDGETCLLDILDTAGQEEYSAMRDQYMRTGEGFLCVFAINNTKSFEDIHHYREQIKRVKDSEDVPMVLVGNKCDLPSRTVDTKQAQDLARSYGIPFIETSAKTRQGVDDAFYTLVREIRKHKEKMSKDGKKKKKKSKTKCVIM
# Chain of GDP-bound NRAS wild-type protein (P01111 whole entry): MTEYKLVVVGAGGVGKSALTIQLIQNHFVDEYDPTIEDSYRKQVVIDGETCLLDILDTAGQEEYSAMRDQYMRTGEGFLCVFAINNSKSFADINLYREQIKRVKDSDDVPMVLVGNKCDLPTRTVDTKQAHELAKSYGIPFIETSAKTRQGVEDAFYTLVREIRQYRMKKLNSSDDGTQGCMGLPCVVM
Kd ([1]; 1:1 binding model) [nM],IC50 [3] [nM],IC50 [4] [nM],IC50 [5] [nM],IC50 [6] [nM],IC50 [7] [nM],IC50 [8] [nM],IC50 [9] [nM],Kd ([1]; Single Cycle Kinetics) [nM],SMILES,NRAS /KRAS [2],HRAS /KRAS (HRAS wild-type protein)
0.041,2.9,2.5,6.8,2.8,0.6,7.7,2.7,–,"CCO[C@@H]1C[C@H]2C(=O)NC3(CC(C)(C)C3)C(=O)N(C)[C@@H](C3CCCC3)C(=O)N(C)[C@H](C(=O)N(C)C)CC(=O)N(C)[C@@H]([C@@H](C)OC)C(=O)N[C@@H]([C@@H](C)CC)C(=O)N(C)CC(=O)N(C)[C@H]3C/C=C\CCN(C3=O)[C@@H](Cc3ccc(C(F)(F)F)cc3)C(=O)N(C)CC(=O)N[C@@H](CCc3ccc(C(F)(F)F)c(OC)c3)C(=O)N2C1 [PP3194, (2S,8S,12R,14S,20S,23S,27S,30S,36S,38Z)-20-cyclopentyl-12-ethoxy-27-[(1R)-1-methoxyethyl]-8-[2-[3-methoxy-4-(trifluoromethyl)phenyl]ethyl]-N,N,3',3',4,19,22,26,32,35-decamethyl-30-[(1S)-1-methylpropyl]-3,6,9,15,18,21,25,28,31,34,42-undecaoxo-2-[[4-(trifluoromethyl)phenyl]methyl]spiro[1,4,7,10,16,19,22,26,29,32,35-undecazatricyclo[34.5.1.0^10,14]dotetracont-38-ene-17,1'-cyclobutane]-23-carboxamide]",A (a compound having 10 or more and less than 20 is denoted as A),A (a compound having 10 or more and less than 20 is denoted as A)
–,1.6,2,3.2,1.1,0.4,2.2,0.7,0.026,"C#CC[C@H]1C(=O)N[C@@H]([C@@H](C)CC)C(=O)N(C)CC(=O)N(C)[C@H]2C/C=C\CCN(C2=O)[C@@H](Cc2ccc(C(F)(F)F)cc2)C(=O)N(C)CC(=O)N[C@@H](CCc2ccc(C(F)(F)F)c(Cl)c2)C(=O)N2C[C@H](OCC)C[C@H]2C(=O)N(C)C2(CCC2)C(=O)N(C)[C@@H](C2CCCC2)C(=O)N(C)[C@H](C(=O)N(C)C)CC(=O)N1C [PP3234, (2S,8S,12R,14S,20S,23S,27S,30S,36S,38Z)-8-[2-[3-chloro-4-(trifluoromethyl)phenyl]ethyl]-20-cyclopentyl-12-ethoxy-N,N,4,16,19,22,26,32,35-nonamethyl-30-[(1S)-1-methylpropyl]-3,6,9,15,18,21,25,28,31,34,42-undecaoxo-27-prop-2-ynyl-2-[[4-(trifluoromethyl)phenyl]methyl]spiro[1,4,7,10,16,19,22,26,29,32,35-undecazatricyclo[34.5.1.0^10,14]dotetracont-38-ene-17,1'-cyclobutane]-23-carboxamide]",A (a compound having 10 or more and less than 20 is denoted as A),B (a compound having 3 or more and less than 10 is denoted as B)
–,5.7,6.6,9.3,3.8,1.9,7.1,3.7,0.1,"C#CC[C@H]1C(=O)N[C@@H]([C@@H](C)CC)C(=O)N2CCC[C@H]2C(=O)N(C)[C@H]2C/C=C\CCN(C2=O)[C@@H](Cc2ccc(C)cc2)C(=O)N(C)CC(=O)N[C@@H](CCc2ccc(C(F)(F)F)c(OC)c2)C(=O)N2C[C@H](OCC)C[C@H]2C(=O)N(C)C2(CCC2)C(=O)N(C)[C@@H](C2CCCC2)C(=O)N(C)[C@H](C(=O)N(C)C)CC(=O)N1C [PP3255, (1S,4S,10S,13S,17S,20S,26S,28R,32S,38S,42Z)-20-cyclopentyl-28-ethoxy-32-[2-[3-methoxy-4-(trifluoromethyl)phenyl]ethyl]-N,N,2,14,18,21,24,36-octamethyl-10-[(1S)-1-methylpropyl]-3,9,12,15,19,22,25,31,34,37,45-undecaoxo-13-prop-2-ynyl-38-(p-tolylmethyl)spiro[2,8,11,14,18,21,24,30,33,36,39-undecazatetracyclo[37.5.1.0^4,8.0^26,30]pentatetracont-42-ene-23,1'-cyclobutane]-17-carboxamide]",A (a compound having 10 or more and less than 20 is denoted as A),A (a compound having 10 or more and less than 20 is denoted as A)
–,4.1,3.9,3.9,2.5,0.4,4.7,1.8,0.1,"CCO[C@@H]1C[C@H]2C(=O)OC3(CCC3)C(=O)N(C)[C@@H](C3CCCC3)C(=O)N(C)[C@H](C(=O)N(C)C)CC(=O)N(C)[C@@H]([C@@H](C)OC)C(=O)N[C@@H]([C@@H](C)CC)C(=O)N(C)CC(=O)N(C)[C@H]3C/C=C\CCN(C3=O)[C@@H](Cc3ccc(C)cc3)C(=O)N(C)CC(=O)N[C@@H](CCc3ccc(C(F)(F)F)c(OC)c3)C(=O)N2C1 [PP3394, (2S,8S,12R,14S,20S,23S,27S,30S,36S,38Z)-20-cyclopentyl-12-ethoxy-27-[(1R)-1-methoxyethyl]-8-[2-[3-methoxy-4-(trifluoromethyl)phenyl]ethyl]-N,N,4,19,22,26,32,35-octamethyl-30-[(1S)-1-methylpropyl]-3,6,9,15,18,21,25,28,31,34,42-undecaoxo-2-(p-tolylmethyl)spiro[16-oxa-1,4,7,10,19,22,26,29,32,35-decazatricyclo[34.5.1.0^10,14]dotetracont-38-ene-17,1'-cyclobutane]-23-carboxamide]",A (a compound having 10 or more and less than 20 is denoted as A),A (a compound having 10 or more and less than 20 is denoted as A)
–,2.3,4,4.9,1.5,1,2.5,1.3,0.044,CCC[C@H]1C(=O)N[C@@H]([C@@H](C)CC)C(=O)N(C)CC(=O)N(C)[C@H]2C/C=C\CCN(C2=O)[C@@H](Cc2ccc(C(F)(F)F)cc2)C(=O)N(C)CC(=O)N[C@@H](CCc2cc(F)c(C(F)(F)F)c(F)c2)C(=O)N2CC3(CC3)C[C@H]2C(=O)N(C)C2(CCC2)C(=O)N(C)[C@@H](C2CCCC2)C(=O)N(C)[C@H](C(=O)N(C)C)CC(=O)N1C [PP3356],A (a compound having 10 or more and less than 20 is denoted as A),A (a compound having 10 or more and less than 20 is denoted as A)
